# According to BindingDB's records for patent US20250115591 (Inflazome, 2025):
# Target: NACHT, LRR and PYD domains-containing protein 3 (Homo sapiens, UniProt Q96P20)
# Assay: THP-1 Cells Pyroptosis Assay
# Experimental: 1. Seed THP-1 cells (25,000 cells/well) containing 1.0 μg/ml LPS in 40μ of RPMI medium (without FBS) in 96-well, black walled, clear bottom cell culture plates coated with poly-D-lysine (VWR #734-0317)2. Add 5 μl compound (8 points half-log dilution, with […]) or vehicle (DMSO 0.1% FAC) to the appropriate wells3. Incubate for 3 hrs at 37° C. and 5% CO24. Add 5 μl nigericin (Sigma #N7143) (FAC 5 μM) to all wells5. Incubate for 1 hr at 37° C. and 5% CO26. At the end of the incubation period, spin plates at 300×g for 3 mins and remove supernatant7. Then add 50 μl of resazurin (Sigma #R7017) (FAC 100 μM resazurin in RPMI medium without FBS) and incubate plates for a further 1-2 hrs at 37° C. and 5% CO28. Plates were read in an Envision reader at Ex 560 nm and Em 590 nm9. IC50 data is fitted to a non-linear regression equation (log inhibitor vs response-variable slope 4-parameters)
# NACHT, LRR and PYD domains-containing protein 3, sequence (Q96P20 whole entry, the tested form may be a part): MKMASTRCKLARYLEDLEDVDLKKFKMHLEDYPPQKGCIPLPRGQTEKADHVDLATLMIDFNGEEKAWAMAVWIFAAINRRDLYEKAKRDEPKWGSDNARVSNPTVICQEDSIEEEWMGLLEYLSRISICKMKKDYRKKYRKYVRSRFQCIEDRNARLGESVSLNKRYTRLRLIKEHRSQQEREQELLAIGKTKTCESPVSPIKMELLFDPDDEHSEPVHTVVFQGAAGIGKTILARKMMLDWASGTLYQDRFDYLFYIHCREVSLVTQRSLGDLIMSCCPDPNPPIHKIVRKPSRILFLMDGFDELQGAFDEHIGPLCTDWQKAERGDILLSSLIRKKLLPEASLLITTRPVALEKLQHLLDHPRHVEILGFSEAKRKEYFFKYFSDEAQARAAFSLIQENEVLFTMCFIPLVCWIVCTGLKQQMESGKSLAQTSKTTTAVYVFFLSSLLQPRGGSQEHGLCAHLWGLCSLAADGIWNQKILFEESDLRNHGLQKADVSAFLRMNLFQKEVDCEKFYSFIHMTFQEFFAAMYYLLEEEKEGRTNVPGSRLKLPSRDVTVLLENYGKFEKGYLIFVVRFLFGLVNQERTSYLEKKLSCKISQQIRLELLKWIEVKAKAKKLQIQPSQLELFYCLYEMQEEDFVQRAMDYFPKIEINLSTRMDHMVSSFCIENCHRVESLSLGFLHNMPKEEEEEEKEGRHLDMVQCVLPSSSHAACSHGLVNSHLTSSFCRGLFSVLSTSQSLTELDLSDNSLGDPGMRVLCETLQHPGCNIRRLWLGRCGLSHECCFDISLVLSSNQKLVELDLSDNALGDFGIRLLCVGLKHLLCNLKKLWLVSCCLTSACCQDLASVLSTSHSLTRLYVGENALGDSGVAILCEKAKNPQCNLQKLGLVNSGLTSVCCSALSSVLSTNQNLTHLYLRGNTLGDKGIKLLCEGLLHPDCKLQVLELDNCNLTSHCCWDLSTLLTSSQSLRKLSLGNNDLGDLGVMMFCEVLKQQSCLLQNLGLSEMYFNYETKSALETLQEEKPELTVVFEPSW
row,IC50 [µM],SMILES
1,< 1,"CCN1CCC(S(=O)(=O)NC(=O)Nc2c3c(cc4c2CCC4)CCC3)C1 (stereo unspecified) [US20250115591, Example 37]"
2,< 10,"CCNC(=O)N1CCC(S(=O)(=O)NC(=O)Nc2c3c(cc4c2CCC4)CCC3)CC1 [US20250115591, Example 26]"
3,< 1,"CCN1CCCC(S(=O)(=O)NC(=O)Nc2c3c(cc4c2CCC4)CCC3)CC1 (stereo unspecified) [US20250115591, Example 194]"
4,< 1,"CC(C)(C)N1CC(S(=O)(=O)NC(=O)Nc2c3c(cc4c2CCC4)CCC3)C1 [US20250115591, Example 93]"
5,< 10,"CC(=O)N1CCC(S(=O)(=O)NC(=O)Nc2c3c(cc4c2CCC4)CCC3)C1 (stereo unspecified) [US20250115591, Example 38]"
6,< 1,"C=CCN1CC(S(=O)(=O)NC(=O)Nc2c3c(cc4c2CCC4)CCC3)C1 [US20250115591, Example 132]"
7,< 1,"O=C(Nc1c2c(cc3c1CCC3)CCC2)NS(=O)(=O)C1CN(C2CCCCC2)C1 [US20250115591, Example 98]"
8,< 10,"CCCCCCn1cc(S(=O)(=O)NC(=O)Nc2c3c(cc4c2CCC4)CCC3)c(=O)[nH]c1=O [US20250115591, Example 17]"
9,< 1,"O=C(Nc1c2c(cc3c1CCC3)CCC2)NS(=O)(=O)C1CN(C2CCCC2)C1 [US20250115591, Example 99]"
10,< 10,"CC(C)NC(=O)N1CCCC(S(=O)(=O)NC(=O)Nc2c3c(cc4c2CCC4)CCC3)C1 (stereo unspecified) [US20250115591, Example 33]"
11,< 10,"CCC(C)N1CC(S(=O)(=O)NC(=O)Nc2c(C(C)C)cc(F)cc2C(C)C)C1 (stereo unspecified) [US20250115591, Example 143]"
12,< 10,"N#CCN1CC(S(=O)(=O)NC(=O)Nc2c3c(cc4c2CCC4)CCC3)C1 [US20250115591, Example 87]"
13,< 10,"CNC(=N)N1CC(S(=O)(=O)NC(=O)Nc2c3c(cc4c2CCC4)CCC3)C1 [US20250115591, Example 129]"
14,< 10,"CC(C)(C)OC(=O)N1CC(N2CC(S(=O)(=O)NC(=O)Nc3c4c(cc5c3CCC5)CCC4)C2)C1 [US20250115591, Example 106]"
15,< 10,"CC(C)N1CC(S(=O)(=O)NC(=O)Nc2c3c(cc4c2CCC4)CCC3)CC1C(=O)N(C)C (stereo unspecified) [US20250115591, Example 148]"
16,< 1,"COc1cc(-c2ccc3c(c2NC(=O)NS(=O)(=O)c2cn(C(C)C)c(=O)cn2)CCC3)ccn1 [US20250115591, Example 156]"
17,< 10,"CCNC(=O)N1CCC(S(=O)(=O)NC(=O)Nc2c3c(cc4c2CCC4)CCC3)C1 (stereo unspecified) [US20250115591, Example 30]"

row,IC50 [µM],SMILES
1,< 1,"C[C@@H](O)Cn1cc(S(=O)(=O)NC(=O)Nc2c3c(cc4c2CCC4)CCC3)ccc1=O [US20250115591, Example 183]"
2,< 10,"O=C(Nc1c2c(cc3c1CCC3)CCC2)NS(=O)(=O)C1CN(C2CNC2)C1 [US20250115591, Example 114]"
3,< 10,"CCC(C)N1CC(S(=O)(=O)NC(=O)Nc2c(C(C)C)cc(Cl)cc2C(C)C)C1 (stereo unspecified) [US20250115591, Example 187]"
4,< 10,"CN(C)C(=O)CN1CC(S(=O)(=O)NC(=O)Nc2c3c(cc4c2CCC4)CCC3)C1 [US20250115591, Example 21]"
5,< 1,"O=C(Nc1c2c(cc3c1CCC3)CCC2)NS(=O)(=O)C1CN(C2CC2)C1 [US20250115591, Example 85]"
6,< 10,"COC(=O)CN1CC(S(=O)(=O)NC(=O)Nc2c3c(cc4c2CCC4)CCC3)C1 [US20250115591, Example 78]"
7,< 1,"O=C(Nc1c2c(cc3c1CCC3)CCC2)NS(=O)(=O)C1CN(C2CCC2)C1 [US20250115591, Example 18]"
8,< 10,"CC(=O)N1CC(S(=O)(=O)NC(=O)Nc2c3c(cc4c2CCC4)CCC3)C1 [US20250115591, Example 74]"
9,< 10,"O=C(Nc1c2c(cc3c1CCC3)CCC2)NS(=O)(=O)C1CCNC1 (stereo unspecified) [US20250115591, Example 55]"
10,< 10,"CC(=O)N1CCCC(S(=O)(=O)NC(=O)Nc2c3c(cc4c2CCC4)CCC3)C1 (stereo unspecified) [US20250115591, Example 56]"
11,< 10,"Cn1cc(S(=O)(=O)NC(=O)Nc2c3c(cc4c2CCC4)CCC3)c(=O)n(C)c1=O [US20250115591, Example 16]"
12,< 10,"CNC(=O)N1CCC(S(=O)(=O)NC(=O)Nc2c3c(cc4c2CCC4)CCC3)CC1 [US20250115591, Example 28]"
13,< 10,"CCC(C)N1CCC(S(=O)(=O)NC(=O)Nc2c3c(cc4c2CCC4)CCC3)C1 (stereo unspecified) [US20250115591, Example 82]"
14,< 10,"O=C(Nc1c2c(cc3c1CCC3)CCC2)NS(=O)(=O)C1CNC1 [US20250115591, Example 42]"
15,< 10,"CC(=O)N1CCC(S(=O)(=O)NC(=O)Nc2c3c(cc4c2CCC4)CCC3)CC1 [US20250115591, Example 3]"
16,< 1,"N=C(N)N1CC(S(=O)(=O)NC(=O)Nc2c3c(cc4c2CCC4)CCC3)C1 [US20250115591, Example 113]"
17,< 10,"CCCCN1CC(S(=O)(=O)NC(=O)Nc2c3c(cc4c2CCC4)CCC3)C1 [US20250115591, Example 83]"

row,SMILES,IC50 [µM]
1,"CCN1[C@@H]2CC[C@H]1C[C@@H](S(=O)(=O)NC(=O)Nc1c3c(cc4c1CCC4)CCC3)C2 [US20250115591, Example 52]",< 10
2,"CC(C)N1[C@@H]2CC[C@H]1C[C@@H](S(=O)(=O)NC(=O)Nc1c3c(cc4c1CCC4)CCC3)C2 [US20250115591, Example 45]",< 1
3,"CN(C(=O)OC(C)(C)C)/C(=N\C(=O)OC(C)(C)C)N1CC(S(=O)(=O)NC(=O)Nc2c3c(cc4c2CCC4)CCC3)C1 [US20250115591, Example 127]",< 10
4,"CC(C)(C)OC(=O)/N=C(/NC(=O)OC(C)(C)C)N1CC(S(=O)(=O)NC(=O)Nc2c3c(cc4c2CCC4)CCC3)C1 [US20250115591, Example 112]",< 10
5,"CN1CC(N2[C@@H]3CC[C@H]2C[C@@H](S(=O)(=O)NC(=O)Nc2c4c(cc5c2CCC5)CCC4)C3)C1 [US20250115591, Example 146]",< 10
6,"CCN1[C@@H]2CC[C@H]1C[C@H](S(=O)(=O)NC(=O)Nc1c3c(cc4c1CCC4)CCC3)C2 [US20250115591, Example 70]",< 1
7,"CC(C)N1[C@@H]2CC[C@H]1C[C@H](S(=O)(=O)NC(=O)Nc1c3c(cc4c1CCC4)CCC3)C2 [US20250115591, Example 69]",< 1
